Results taken from publication doi:10.1101/2020.02.26.964882v3 (biorxiv, 2020).
pIC50: −log10 of the molar value.

Molecular target: COVID-19 virus M^pro (Severe acute respiratory syndrome coronavirus 2, UniProt P0DTD1)
Assay: enzymatic inhibition assay
Format: biochemical

Question: With `CN(C)CCCSc1ccccc1NC(=O)/C=C/c1ccccc1` [cinanserin] as the compound, how does the pIC50 read?
Answer: 3.90
